pIC50: −log10 of the molar value. Some results are limits rather than exact numbers.

This test has as its target T1, human recombinant ALK1 (GST fused to ALK1 intracellular domain [His142-Gln503]) (Homo sapiens, UniProt P37023).
T1 construct: GST fused to ALK1 intracellular domain [His142-Gln503]; made in house
T1 sequence (P37023 142-503): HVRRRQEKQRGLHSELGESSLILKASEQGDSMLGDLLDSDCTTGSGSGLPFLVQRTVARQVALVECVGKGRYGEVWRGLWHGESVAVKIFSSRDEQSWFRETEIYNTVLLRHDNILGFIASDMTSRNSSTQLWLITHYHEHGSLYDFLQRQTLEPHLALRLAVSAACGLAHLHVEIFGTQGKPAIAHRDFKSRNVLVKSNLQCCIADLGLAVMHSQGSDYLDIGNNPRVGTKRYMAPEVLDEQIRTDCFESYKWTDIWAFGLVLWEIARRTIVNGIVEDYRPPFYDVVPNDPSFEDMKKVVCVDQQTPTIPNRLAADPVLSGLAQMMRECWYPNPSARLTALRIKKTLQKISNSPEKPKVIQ
Description: ALK1-Kinase Flashplate-Assay. The settings on record: 0.5 μM ATP, biotinylated α-casein substrate; read-out: Assay 1 (ALK1-Kinase Flashplate-Assay IC50 class). Format: biochemical. The text has this: Biological Assay 1: ALK1-Kinase Flashplate-Assay
ALK1 phosphorylates serine/threonine residues of the biotinylated substrate bovine α-casein in the presence of [γ-^33P]ATP. Detection of the radiolabeled phosphorylated product is achieved by binding to streptavidine-coated Flashplates. The biotin moieties of biotinylated casein bind with high affinity to the streptavidine. The radiolabeled biotinylated casein produced by the ALK1 kinase reaction is able to generate a […] signal when strepatavidine-mediated binding occurs to the scintillant-containing surface of the Flashplates due to the close proximity of the radiolabel and the scintillant. […] The signals obtained are therefore indicative of the ALK1 kinase activity. Measurement is performed in a Perkin-Elmer TopCount or Perkin-Elmer ViewLux instrument.
Enzyme: Purified human recombinant ALK1 (GST fused to ALK1 intracellular domain [His142-Gln503]) produced in-house, aliquots stored at −80° C.;
Diluted enzyme working solution: 2.5 ng/μl ALK1 (in assay buffer) freshly prepared and chilled on ice until use.
Substrate: biotinylated bovine α-casein. Unbiotinylated casein obtained from Sigma was biotinylated by standard procedures using N-hydroxysuccinimide (NHS) ester of biotin.
Substrate working solution: 0.83 μM ATP, 1.67 μM biotinylated a-casein, 7.4 nCi [γ-^33P]ATP/μl in assay buffer
Assay plates: 384-well plates, small volume, white, Greiner (# 784075)
Flashplates: Streptavidin-coated Flashplates, Perkin Elmer (384-well # SPM410A)
Assay buffer: 50 mM Tris/HCl pH 8.0, 1 mM MnCl2, 1 mM DTT, 0.01% NP40, 0.5× Complete EDTA-free
Stop solution: 33.3 μM ATP, 33.3 mM EDTA, 0.07% Triton X-100 in PBS
Saturating buffer for Flashplates: 100 μM ATP, 0.2% Triton X-100 in PBS
Sealing tape: Greiner (# 676080)
Protocol for small volume 5 μl assay (all steps are performed at 20° C., pipetted with CyBi-Well and Multidrop Micro): • 1. 50 nl or 250 nl compound in 100% DMSO • 2. addition of 3 μl substrate working solution with CyBi-Well pipettor • 3. addition of 2 μl enzyme working solution with Multidrop Micro incubation for 60 min at room temperature • 4. addition of 15 μl Stop solution with CyBi-Well pipettor • 5. transfer of 18 μl assay mixture to Flashplates** with CyBi-Well pipettor incubation for at least 3 h at room temperature or over night at 4° C. to allow binding to the streptavidine-coated Flashplates • 6. washing the Flashplates 3 times with 50 μl PBS without Ca++ and Mg++ • 7. sealing with sealing tape • 8. Measurement in Topcount (60 sec/well) **Saturation of Flashplates: The Flashplates are preincubated for at least 1 hour with 50 μl saturating buffer. Remove 18 μl from the 50 μl and transfer 18 μl of the assay mixture to the Flashplate.
Final concentrations, calculated for 5 μl reaction volume: ALK1 5 ng/well; 1 μM biotinylated α-casein; 0.5 μM ATP; 22 nCi/well [γ-^33P]ATP; 1 mM MnCl2; 1 mM DTT; 50 mM Tris-HCl; pH 8.0; 0.01% NP40; 0.5× Complete EDTA-free; 1% or 5% DMSO.
The data were normalised (enzyme reaction without inhibitor=0% inhibition, enzyme reaction in the presence of 10 mM EDTA=100% inhibition) and IC50 values were calculated by a 4 parameter fit using an in-house software.
For the compound `COc1cc(-c2cnn3ccc(Nc4cc(OC)c(OC)c(OC)c4)nc23)ccc1O` [Example 424, 2-Methoxy-4-[5-(3,4,5-trimethoxy-phenylamino)-pyrazolo[1,5-a]pyrimidin-3-yl]-phenol], the pIC50 is 5.00 to 6.00.

On to `Cc1ccc(S(=O)(=O)Nc2ccc(Nc3ccn4ncc(-c5cccnc5)c4n3)cc2)cc1` [Example 52, 4-Methyl-N-[4-(3-pyridin-3-yl-pyrazolo[1,5-a]pyrimidin-5-ylamino)-phenyl]-benzenesulfonamide], for which the pIC50 was above 6.00. Then `CS(=O)(=O)Nc1cccc(-c2cnn3ccc(Nc4ccccc4)nc23)c1` [Example 243, N-[3-(5-Phenylamino-pyrazolo[1,5-a]pyrimidin-3-yl)-phenyl]-methanesulfonamide], with above 6.00; and `O=C(O)c1ccc(-c2cnn3ccc(Nc4ccc(Oc5ccccc5)cc4)nc23)cc1` [Example 255, 4-[5-(4-Phenoxy-phenylamino)-pyrazolo[1,5-a]pyrimidin-3-yl]-benzoic acid], with above 6.00; and `CCN(CC)CCCNc1ccn2ncc(-c3ccc(C)c(Cl)c3)c2n1` [Example 492, N′-[3-(3-Chloro-4-methyl-phenyl)-pyrazolo[1,5-a]pyrimidin-5-yl]-N,N-diethyl-propane-1,3-diamine], with 5.00 to 6.00. In the case of `c1csc(-c2cnn3ccc(Nc4ccc(N5CCOCC5)cc4)nc23)c1` [Example 234, (4-Morpholin-4-yl-phenyl)-(3-thiophen-2-yl-pyrazolo[1,5-a]pyrimidin-5-yl)-amine] it was 5.00 to 6.00; in that of `Clc1cccc(-c2cnn3ccc(NCc4cccnc4)nc23)c1` [Example 402, [3-(3-Chloro-phenyl)-pyrazolo[1,5-a]pyrimidin-5-yl]-pyridin-3-ylmethyl-amine], 5.00 to 6.00. In the case of `CC(C)c1ccc(Nc2ccn3ncc(-c4cccc(CO)c4)c3n2)cc1` [Example 275, {3-[5-(4-Isopropyl-phenylamino)-pyrazolo[1,5-a]pyrimidin-3-yl]-phenyl}-methanol], the pIC50 was 5.00 to 6.00.

On to `OC1CCC(Nc2ccn3ncc(-c4ccc(F)cc4)c3n2)CC1` (centres unmarked) [Example 401, 4-[3-(4-Fluoro-phenyl)-pyrazolo[1,5-a]pyrimidin-5-ylamino]-cyclohexanol], for which the pIC50 was 5.00 to 6.00. Consider `COc1cc(-c2cnn3ccc(NCCO)nc23)cc(OC)c1OC` [Example 120, 2-[3-(3,4,5-Trimethoxy-phenyl)-pyrazolo[1,5-a]pyrimidin-5-ylamino]-ethanol], for which the pIC50 is above 6.00. In the case of `Cc1ccc(Nc2ccn3ncc(-c4ccc(O)cc4)c3n2)cc1NS(C)(=O)=O` [Example 60, N-{5-[3-(4-Hydroxy-phenyl)-pyrazolo[1,5-a]pyrimidin-5-ylamino]-2-methyl-phenyl}-methanesulfonamide] it was above 6.00.

For the compound `COc1ccc(-c2cnn3ccc(Nc4ccc5[nH]ccc5c4)nc23)cc1OC` [Example 17, [3-(3,4-Dimethoxy-phenyl)-pyrazolo[1,5-a]pyrimidin-5-yl]-(1H-indol-5-yl)-amine], the pIC50 is above 6.00. In the case of `FC(F)(F)Oc1cccc(-c2cnn3ccc(NCc4ccncc4)nc23)c1` [Example 113, Pyridin-4-ylmethyl-[3-(3-trifluoromethoxy-phenyl)-pyrazolo[1,5-a]pyrimidin-5-yl]-amine], the pIC50 was above 6.00. Regarding `COc1ccc(-c2cnn3ccc(Nc4ccc(O)cc4)nc23)cc1` [Example 146, 4-[3-(4-Methoxy-phenyl)-pyrazolo[1,5-a]pyrimidin-5-ylamino]-phenol], the pIC50 was 5.00 to 6.00. `COc1cc(Nc2ccn3ncc(-c4cnn(C)c4)c3n2)cc(OC)c1OC` [Example 182, [3-(1-Methyl-1H-pyrazol-4-yl)-pyrazolo[1,5-a]pyrimidin-5-yl]-(3,4,5-trimethoxy-phenyl)-amine]: the pIC50 was 5.00 to 6.00. In the case of `COc1cc(-c2cnn3ccc(Nc4ccc(C(C)C)cc4)nc23)ccc1O` [Example 277, 4-[5-(4-Isopropyl-phenylamino)-pyrazolo[1,5-a]pyrimidin-3-yl]-2-methoxy-phenol] it was above 6.00.

With `CC(=O)Nc1cccc(-c2cnn3ccc(Nc4cccc(Cl)c4)nc23)c1` [Example 453, N-{3-[5-(3-Chloro-phenylamino)-pyrazolo[1,5-a]pyrimidin-3-yl]-phenyl}-acetamide], the pIC50 is 5.00 to 6.00. As to `COc1cc(Nc2ccn3ncc(-c4cccc(C(C)=O)c4)c3n2)cc(OC)c1OC` [Example 179, 1-{3-[5-(3,4,5-Trimethoxy-phenylamino)-pyrazolo[1,5-a]pyrimidin-3-yl]-phenyl}-ethanone], the pIC50 is 5.00 to 6.00.

`CCN(CC)CCCNc1ccn2ncc(-c3cccc(Cl)c3)c2n1` [Example 486, N′-[3-(3-chloro-phenyl)-pyrazolo[1,5-a]pyrimidin-5-yl]-N,N-diethyl-propane-1,3-diamine]: the pIC50 was 5.00 to 6.00.

For the compound `Fc1ccc(-c2cnn3ccc(NCc4cccnc4)nc23)cc1Cl` [Example 379, [3-(3-Chloro-4-fluoro-phenyl)-pyrazolo[1,5-a]pyrimidin-5-yl]-pyridin-3-ylmethyl-amine], the pIC50 is 5.00 to 6.00. With `COc1cccc(-c2cnn3ccc(Nc4ccc(OC)nc4)nc23)c1` [Example 196, [3-(3-Methoxy-phenyl)-pyrazolo[1,5-a]pyrimidin-5-yl]-(6-methoxy-pyridin-3-yl)-amine], the pIC50 was above 6.00.

Take `c1cncc(CNc2ccn3ncc(-c4cccc5ccccc45)c3n2)c1` [Example 377, (3-Naphthalen-1-yl-pyrazolo[1,5-a]pyrimidin-5-yl)-pyridin-3-ylmethyl-amine]: the pIC50 was above 6.00. In the case of `COc1ccc(-c2cnn3ccc(NCc4cccnc4)nc23)cc1` [Example 167, [3-(4-Methoxy-phenyl)-pyrazolo[1,5-a]pyrimidin-5-yl]-pyridin-3-ylmethyl-amine], the pIC50 was 5.00 to 6.00. Regarding `COc1cc(-c2cnn3ccc(Nc4ccc(C)c(NS(C)(=O)=O)c4)nc23)cc(OC)c1OC` [Example 105, N-{2-Methyl-5-[3-(3,4,5-trimethoxy-phenyl)-pyrazolo[1,5-a]pyrimidin-5-ylamino]-phenyl}-methanesulfonamide], the pIC50 was above 6.00.

As for `O=C(O)c1ccc(-c2cnn3ccc(Nc4ccccc4)nc23)cc1` [Example 248, 4-(5-Phenylamino-pyrazolo[1,5-a]pyrimidin-3-yl)-benzoic acid], the pIC50 was 5.00 to 6.00.

As for `Oc1cccc(-c2cnn3ccc(Nc4cccc(Cl)c4)nc23)c1` [Example 311, 3-[5-(3-Chloro-phenylamino)-pyrazolo[1,5-a]pyrimidin-3-yl]-phenol], the pIC50 was 5.00 to 6.00. Then `Nc1cccc(-c2cnn3ccc(Nc4ccc(O)cc4)nc23)c1` [Example 338, 4-[3-(3-Amino-phenyl)-pyrazolo[1,5-a]pyrimidin-5-ylamino]-phenol], with 5.00 to 6.00; and `c1cncc(CNc2ccn3ncc(-c4ccsc4)c3n2)c1` [Example 291, Pyridin-3-ylmethyl-(3-thiophen-3-yl-pyrazolo[1,5-a]pyrimidin-5-yl)-amine], with 5.00 to 6.00. `COc1ccc(Nc2ccn3ncc(-c4cnn(Cc5ccccc5)c4)c3n2)cn1` [Example 199, [3-(1-Benzyl-1H-pyrazol-4-yl)-pyrazolo[1,5-a]pyrimidin-5-yl]-(6-methoxy-pyridin-3-yl)-amine]: the pIC50 was 5.00 to 6.00.

In general, pIC50 refers to the IC50 on a negative log10 scale, so that one unit is a factor of ten.

Source of the values: patent US20080039455A1, “PYRAZOLOPYRIMIDINES AND SALTS THEREOF, PHARMACEUTICAL COMPOSITIONS COMPRISING SAME, METHODS OF PREPARING SAME AND USES OF SAME” (priority 2006, published 2008).
